Laboratory results taken from BindingDB's records for doi:10.1021/jm020865i (Departement D'Ingenierie Et D'Etudes Des Proteines, 2002).
*1 amine or outer side, *2 acyl side, *3 side chain or, on linkers, in order; H or OH if unused. Where a SMILES comes first, the peptide text is derived from it. The star is where a group is joined. pNA = O=[N+]([O-])c1ccc(N*)cc1; Suc = O=C(CCC(=O)[*:2])[*:1]

Legend:
[1] = target: Peptidyl-prolyl cis-trans isomerase A, cyclophilin A (Homo sapiens) (UniProt P62937); test: The compound was evaluated for its binding affinity against Human Cyclophilin hCyp-18 Peptidyl-prolyl isomerase
[2] = target: Peptidyl-prolyl cis-trans isomerase A, cyclophilin A (Homo sapiens) (UniProt P62937); test: Inhibitory activity against Human Cyclophilin hCyp-18 Peptidyl-prolyl isomerase by using the standard trypsin-coupled PPIase (peptidyl-prolyl isomerases) assay
[3] = target: Peptidyl-prolyl cis-trans isomerase A, cyclophilin A (Homo sapiens) (UniProt P62937); test: The compound was evaluated for its binding affinity against Human Cyclophilin hCyp-18 Peptidyl-prolyl isomerase; remark: listed apart in the source

Peptidyl-prolyl cis-trans isomerase A, cyclophilin A (Homo sapiens), sequence (P62937 whole entry, looked up): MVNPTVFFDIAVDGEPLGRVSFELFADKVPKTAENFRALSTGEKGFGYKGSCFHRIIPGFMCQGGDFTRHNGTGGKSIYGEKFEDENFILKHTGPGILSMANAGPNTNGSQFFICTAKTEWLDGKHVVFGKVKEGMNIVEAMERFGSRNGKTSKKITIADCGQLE

Row | Compound | Kd [1] [µM] | IC50 [2] [µM] | Kd [3] [µM]
1 | CC(=O)N[C@@H](C)C(=O)N[C@@H](C)C(=O)N1CCC[C@H]1C(=O)N[C@@H](Cc1ccccc1)C(=O)Nc1ccc([N+](=O)[O-])cc1 [1-[2-(2-Acetylamino-propionylamino)-propionyl]-pyrrolidine-2-carboxylic acid [1-(4-nitro-phenylcarbamoyl)-2-phenyl-ethyl]-amide] (Ac-AAPF-pNA) | 145 | 640 | –
2 | C[C@H](NC(=O)CCC(=O)O)C(=O)NCC(=O)N1CCC[C@H]1C(=O)N[C@@H](Cc1ccccc1)C(=O)Nc1ccc([N+](=O)[O-])cc1 [N-[1-(2-{2-[1-(4-Nitro-phenylcarbamoyl)-2-phenyl-ethylcarbamoyl]-pyrrolidin-1-yl}-2-oxo-ethylcarbamoyl)-ethyl]-succinamic acid] (Suc-AGPF-pNA) | – | 1450 | 140
3 | CCOP(=O)(CNC(=O)[C@H](C)NC(C)=O)N1CCCC1C(=O)N[C@H](CNc1ccc([N+](=O)[O-])cc1)Cc1ccccc1 (some centres not stated) [[(2-Acetylamino-propionylamino)-methyl]-{2-[1-benzyl-2-(4-nitro-phenylamino)-ethylcarbamoyl]-pyrrolidin-1-yl}-phosphinic acid ethyl ester] | 200 | – | –

Continued by falling Kd [1], values first:

Row | Kd [1] [µM] | IC50 [2] [µM] | Kd [3] [µM] | Compound
4 | 135 | 540 | – | C[C@H](NC(=O)CCC(=O)O)C(=O)N[C@@H](C)C(=O)N1CCC[C@H]1C(=O)N[C@@H](Cc1ccccc1)C(=O)Nc1ccc([N+](=O)[O-])cc1 [N-[1-(1-Methyl-2-{2-[1-(4-nitro-phenylcarbamoyl)-2-phenyl-ethylcarbamoyl]-pyrrolidin-1-yl}-2-oxo-ethylcarbamoyl)-ethyl]-succinamic acid] (Suc-AAPF-pNA)
5 | 127 | 215 | – | CC(=O)N[C@@H](C)C(=O)NCC(=O)C(=O)N1CCCC1C(=O)N[C@@H](Cc1ccccc1)C(=O)Nc1ccc([N+](=O)[O-])cc1 (some centres not stated) [1-[3-(2-Acetylamino-propionylamino)-2-oxo-propionyl]-pyrrolidine-2-carboxylic acid [1-(4-nitro-phenylcarbamoyl)-2-phenyl-ethyl]-amide]
6 | 79 | – | – | COC(=O)Cc1ccc(NC(=O)[C@H](Cc2ccccc2)NC(=O)C2CCCN2P(=O)(O)CNC(=O)[C@H](C)NC(C)=O)cc1 (some centres not stated) [[(2-Acetylamino-propionylamino)-methyl]-{2-[1-(4-methoxycarbonylmethyl-phenylcarbamoyl)-2-phenyl-ethylcarbamoyl]-pyrrolidin-1-yl}-phosphinic acid anion]
7 | 20 | 15 | – | CCOP(=O)(CNC(=O)[C@H](C)NC(=O)CCC(=O)O)N1CCCC1C(=O)N[C@@H](Cc1ccccc1)C(=O)Nc1ccc([N+](=O)[O-])cc1 (some centres not stated) [N-{1-[(Ethoxy-{2-[1-(4-nitro-phenylcarbamoyl)-2-phenyl-ethylcarbamoyl]-pyrrolidin-1-yl}-phosphinoylmethyl)-carbamoyl]-ethyl}-succinamic acid]
